One assay deals with A/Perth/265/2009 virus. Kind of assay: Example 2 ferret contact transmission study, serology (HI assay) of recipient sera. The following applies: for recipients demonstrating antibody responses to donor virus (serology): positive/total. It is filed as in vivo. An excerpt:
Sera were collected from endpoint recipient blood samples by centrifugation, and non-specific inhibitors of agglutination were removed by treatment with receptor-destroying enzyme (RDE) (Denka Seiken) according to manufacturer's instructions. Treated sera were adsorbed with turkey RBCs prior to HI assay to remove non-specific agglutination factors. Briefly, sera (initially 1:20 dilution) were serially diluted twofold in PBS in V-bottom 96-well plates (final row left as PBS negative control). A/Perth/265/2009 virus adjusted to 4 haemagglutination units in 25 μL was mixed to all sample wells for 1 hr incubation at room temperature, followed by 45 min incubation of 1% turkey RBC. […] HI titre was calculated as the reciprocal of the highest serum dilution at which agglutination was inhibited.
This study consisted of three separate Experiments using different schedules of antiviral treatment and timing of naïve animal co-housing. In each experiment, twenty-four ferrets were randomly assigned to three groups (n=8): BXA, OST and placebo. Within each group, n=4 ferrets were designated as treated donor ferrets, and n=4 as naïve recipients. On 0 DPI (days post inoculation) for each experiment, all donor ferrets (each individually housed) were intranasally inoculated with influenza A/Perth/265/2009 at […] tissue culture infective doses (TCID50) in 40 μL of phosphate-buffered saline (PBS). As described above, donors in the BXA and placebo groups received a single antiviral treatment, whereas OST-group donors were treated daily until endpoint (excluding cull day). At the designated time point, naïve recipient ferrets were co-housed with treated donor ferrets (1:1 per cage) for a contact exposure period of 48 hr.
Experiment 2: Antiviral treatment commenced at 1 DPI, and recipient co-housing was delayed until 24 hr following treatment (2 DPI). Body weight and temperature were monitored daily from all animals. Daily nasal wash samples were collected using 1 mL of PBS from 1 DPI to 4 DPI for donor animals, and 1 DPE to 10 DPE for recipient animals. Donors were sacrificed at 4 DPI (2 DPE), and blood was collected from BXA- and placebo-treated ferrets by cardiac puncture. Recipients were maintained until 16 DPE, at which time blood was collected by cardiac puncture.
Experiment 3: Antiviral treatment commenced at 2 DPI, and recipients were co-housed immediately afterwards. Body weight and temperature were monitored daily from all animals. Daily nasal wash samples were collected using 1 mL of PBS from 1 DPI to 4 DPI for donor animals, and 1 DPE to 10 DPE for recipient animals. Donors were sacrificed at 4 DPI (2 DPE), and blood was collected from BXA- and placebo-treated ferrets by cardiac puncture. Recipients were maintained until 16 DPE, at which time blood was collected by cardiac puncture.

Assay [1] relates to influenza A virus A/England/195/2009. Kind of assay: Example 1 ferret transmission study, real-time RT-PCR of nasal wash. Particulars: positive/total; for Sentinel DC ferrets positive for influenza as detected by the qRT-PCR: direct contact sentinels; for Sentinel RD ferrets positive for influenza as detected by the qRT-PCR: respiratory droplet sentinels. It is filed as in vivo. As to the method: In this experiment baloxavir was administered once to ferrets as s.c. suspension with 1 mg/kg at 4 different locations in the back. Oseltamivir phosphate (5 mg/kg) was orally administered twice daily for 5 days.
24 hours post infection, the 4 infected ferrets were nasal washed. Nasal washes were assayed immediately by plaquing on fresh MDCK cells for infectious virus and carrying out RT-PCR for viral RNA load. Each donor ferret was then treated with either baloxavir, oseltamivir phosphate or vehicle only. Baloxavir was administered once subcutaneously in 4 locations on the back with 1 mg/l mL/kg per injection (total 4 mg/4 mL/kg). After dosing of baloxavir blood samples (minimum 200 μl) were collected from the donor animals at 48 h and 144 h, respectively, for pharmacokinetics (PK) analysis.
A 5 mg/kg dose of oseltamivir phosphate was orally administered twice daily for 5 days, which is considered to be equivalent to the standard human adult dose of 75 mg for treatment (J Antimicrob Chemother 2014; 69: 2458-2469). After drug administration on day 1 one sentinel animal was introduced into same cage as each infected donor (DC animal) and one sentinel animal was introduced into adjacent cage (RD animal). Sentinel animals were not treated with any drug.
All ferrets were nasal washed on day 2 and every subsequent day until experiment end starting with RD animals, then DC animals, and finishing with donors. Plaque assay was performed immediately on nasal wash. Virus RNA was also monitored by RT-PCR. Daily observation of clinical signs including temperature, weight loss and respiratory signs was performed. In addition, virus exhaled in breath from the 4 donor animals was monitored by placing them in a chamber for 10 minutes and sampling air using sentinel MDCK cells.
140 μl of ferret nasal wash was used to extract RNA using the Qiagen Viral RNA mini kit (Cat No./ID: 52904), according to manufacturer's instructions.
Real-time PCR was performed using 7500 Real Time PCR system (ABI) in 20 μl reactions using AgPath-ID™ One-Step RT-PCR Reagents 10 μl RT-PCR buffer (2×) (Thermo Fisher, Cat. No. 4387391), 4 μl of RNA, 0.8 μl forward (5′[…] 3′, SEQ ID NO:1) and reverse primers (5′ […]3′, SEQ ID NO:2) and 0.4 μl probe (5′ FAM-[…]-BHQ1 3′, SEQ ID NO:3). Reverse transcription was carried out at 45° C. for 10 min. PCR amplification conditions consisted of 95° C. for 15 s and 60° C. for 1 min after an initial denaturation step at 95° C. for 10 min. In total 40 cycles were performed. For each sample, the Ct value for the target M gene was determined. M gene is an influenza gene encoding the 2 Matrix proteins M1 and M2. The M gene is detected in PCR and can be used to quantify the influenza virus. Based on the standard curves, absolute copy numbers were calculated to establish if the ferret was positive for influenza A.

Bounds are passed on as bounds.

Consider `CCOC(=O)C1=C[C@@H](OC(CC)CC)[C@H](NC(C)=O)[C@@H](N)C1` [oseltamivir, oseltamivir phosphate, reference compound], for which the “recipients demonstrating antibody responses to donor virus (serology)” value with A/Perth/265/2009 virus (Example 2 Experiment 2) is reported as 4/4. Further, in assay [1], the “Sentinel DC ferrets positive for influenza as detected by the qRT-PCR” value is listed as 4/4, the “Donor ferrets positive for influenza as detected by the qRT-PCR” value is given as 4/4 and the “Sentinel RD ferrets positive for influenza as detected by the qRT-PCR” value is 4/4.
In the case of `O=C1c2c(O)c(=O)ccn2N([C@@H]2c3ccccc3SCc3c2ccc(F)c3F)[C@@H]2COCCN12` [baloxavir, baloxavir acid], the “reduction of antibody responses in TCID50-negative recipients compared to titres in placebo-group recipients” value in the assay with A/Perth/265/2009 virus (Example 2 Exp. 2 and 3) is 16-32 fold. Besides, in the assay on A/Perth/265/2009 virus (Example 2 Experiment 2, baloxavir-group recipient), the “reduction of antibody response in TCID50-negative ferret compared to TCID50-positive ferrets” value is recorded as greater than 32 fold change. The “recipients demonstrating antibody responses to donor virus (serology)” value in the assay with A/Perth/265/2009 virus (Example 2 Experiment 2) is reported as 2/4. Further, in the assay with A/Perth/265/2009 virus (Example 2 Experiment 3, TCID50-negative baloxavir-group recipients (2/4)), the “reduction of antibody titres in TCID50-negative recipients compared to TCID50-positive ferrets” value is on record as greater than 16 fold change. In addition, in assay [1], the “Sentinel DC ferrets positive for influenza as detected by the qRT-PCR” value was 4/4, the “Donor ferrets positive for influenza as detected by the qRT-PCR” value was 4/4 and the “Sentinel RD ferrets positive for influenza as detected by the qRT-PCR” value is 1/4.

For the origin of these results see patent US11911394B2, “Compound and method for the prevention of transmission of influenza virus” (Hoffmann-La Roche Inc., priority 2019, dated 2024).
